Test results reported in article PMC12378621, “Benzo-ring modification on Malaria Box hit MMV008138: effects on antimalarial potency and microsomal stability” (RSC Medicinal Chemistry, 2025).
Several values for one entry are separate records, joined by “and”; a condition that tells them apart may be missing. Equal entries are not always repeated. Where two headings read alike, the source gives them in different places. One block for each molecule: values may come before it.

Columns and labels:
[1] = system: P. falciparum (Dd2 strain); settings: 72 h exposure, multidrug-resistant Dd2 strain; reported values; read-out: Dd2 strain EC50; cited from earlier work
[2] = system: P. falciparum (Dd2 strain); assay: ABS P. falciparum growth inhibition, SYBR Green I assay, 72 h endpoint; assay type: cell-based, Plasmodium falciparum; settings: for EC50: Plasmodium falciparum, DD2, SYBR Green I, 72 h endpoint, read-out: Dd2 strain P. falciparum growth inhibition EC50; for loss of growth inhibition potency (EC50) relative to 1: Dd2 strain
Procedure: Parasites were maintained in O-positive human erythrocytes (Grifols, Memphis, TN, USA) at 5% hematocrit in RPMI 1640 medium supplemented with 5 g L^−1 Albumax I (Gibco Life Technologies), 2 g L^−1 glucose (Sigma-Aldrich), 2.3 g L^−1 sodium bicarbonate (Sigma-Aldrich), 370 μM hypoxanthine (Sigma-Aldrich), 25 mM HEPES, and 20 mg L^−1 gentamicin (Gibco Life Technologies). The parasites were kept at 37 °C under reduced-oxygen conditions (5% CO2, 5% O2, and 90% N2).
(§1) […]. MMV008138 (1) was used as control. The percentage of growth was normalized to that of untreated control parasites in the presence of 0.1% DMSO. Background determinations were made using uninfected erythrocytes. Two or more independent experiments in duplicate were performed. The EC50 values were calculated with GraphPad Prism 9 (GraphPad Software Ltd.) using nonlinear regression curve fitting with variable slope (four parameters) and represent the average and their standard error of the mean (S.E.M.). To assess whether 20a–e specifically targeted the apicoplast, the recovery of growth in the presence of inhibitor and isopentenyl diphosphate (IPP) was performed as described previously.[8] Briefly, parasites were grown in the presence or absence of 200 μM IPP along with a serial dilution (10 μM to 0.01 μM) or single concentration (10 or 20 μM) of drug. […] All conditions were set in 96-well half area plates using highly synchronous ring-stage parasite cultures (100 μL per well at 1% hematocrit and 1% parasitemia) and incubated for 72 h under normal culture conditions. Parasite growth was measured by the SYBR green I assay.

[3] = Mouse microsomal stability (authors' laboratory, UPLC/MS/MS); settings: presence of NADPH
Procedure: Mouse microsomal stability of 20a, 20c, 20d was first assessed in our laboratory. […]
and coumarin were used as controls . Microsomal stability was assessed by ultra-performance liquid chromatography and high -resolution mass spectrometry […]
MA). Potassium phosphate monobasic, potassium phosphate dibasic, and coumarin were purchased from Sigma-Aldrich (St. Louis, MO). Briefly, compound incubations were carried out by the addition of mouse liver microsomes (0.5 mg/ml) in 0.05 M potassium phosphate buffer (pH 7.4), solution A and B, and preincubated at 37°C for 5 min. Control experiments were also carried out in the absence of NADPH solution A and B. Coumarin reaction was used as positive control. Reactions were terminated by adding acetonitrile. Sample analysis was performed on an IonKey/MS system composed of an ACQUITY UPLC M-Class, the ionKey source, and an iKey BEH C18 130 Å 1.7 µm 150 µm x 50 mm column coupled to a Synapt G2-Si mass spectrometer (Waters Corporation, Milford, MA, USA). Separation was accomplished using a binary gradient system consisting of 0.1% formic acid in water (mobile phase A) and 0.1% formic acid in acetonitrile (mobile phase B). The linear gradient was programmed as follows: 0-3 min 1% B, 3- […]
was 3 µL/min, the injection volume was 3 µL in full loop mode, and the iKey temperature was set at 40°C. MS analyses were performed acquiring in MSE mode from 80 to 1500 m/z in positive electrospray ionization mode with a capillary voltage of 3 kV. Data were collected in two channels all the time: low collision energy (6.0 V), for the molecular ions, and high collision energy (15-40 V), for product ions. The source temperature was set at 110°C. Leucine […]
scan at 20 s intervals. Infusion flow rate for lock mass was 1 μL/min. The microsomal stability was determined using MassLynx software (Waters Corporation, Milford, MA, USA). Relative amounts were calculated by comparing the peak area of each evaluated compound at time 0 minutes to its corresponding area at times 45, 90 and 180 minutes to return a ratio.

[4] = system: P. falciparum (Dd2 strain); assay: Metabolic rescue of parasite growth by isopentenyl diphosphate (IPP) supplementation; assay type: cell-based, Plasmodium falciparum; settings: drug at 10 μM
Procedure: as §1

[5] = system: Plasmodium berghei ANKA expressing luciferase (PbGFP-Luccon); assay: In vivo efficacy in P. berghei-infected mice (luminescence on Day 7)
Procedure: 2. In vivo efficacy studies of 1 (NYU) in P. berghei-infected mice (po and iv) Efficacy of 1 in P. berghei-infected mice was assessed at the Anti-Infectives Core Facility, Department of Microbiology, Grossman School of Medicine, New York University.
A. Oral Administration Protocol
Three groups of five female Swiss Webster mice weighing 25 to 30 g were used for vehicle […]
berghei ANKA expressing luciferase (PbGFP-Luccon) obtained from a donor infected mouse.10 […]
2 to 6 and imaged on day 7.
Figure S1. Dosing and imaging timeline of P. berghei-infected mice. […]
Day 7 as described in the text.
The vehicle for all groups was 0.5% (hydroxypropyl)methyl cellulose, 0.5% Tween-80.
For the surviving mice, o n day 7 after infection, mice were anesthetized by inhalation of isofluorane and injected via i.p. with 150 mg/kg of luciferase substrate dissolved in PBS (D-Luciferin Potassium Salt , Gold Biotechnology ).
Mice were imaged 5 to 10 min after inj ection of luciferin using an IVIS imager (Lumina II In Vivo Imaging System; Perkin -Elmer). The data acquisition and analysis were performed with LivingImage (Xenogen). Accumulated light intensity was measured in each mouse to determine the baseline infection levels before treatment .
(1 picture or pasted object on this page, not shown here)
B. IV Administration Protocol
One group of four female Swiss Webster mice weighing 25 to 30 g were used for vehicle control, and groups of five mice were used for 1 treatment (IV, 2 x 30 mg/kg/d) and the positive […]
On Day 0, mice were infected via intraperitoneal (i.p.) […]
from a donor infected mouse. 10 As shown below in Figure S2 (and legend), mice were treated […]
Figure S2. Dosing and imaging timeline of P. berghei-infected mice. Vehicle and 1 (30 mpk) treatments were administered IV twice -daily on Days 2-6. […]
administered i .p. once-daily. Mice were imaged on Day 7, as described in the text.
The vehicle for this study was 30%PEG, 40% Captisol (30%w/v solution).
Table S2. Luminescence Data after background subtraction for IV dosing of Vehicle, 1, and IP […]
Table S9. Concentration of 20c vs time in mice. […]
Figure S6. Dosing and imaging timeline of P. berghei-infected mice. […]

[6] = Table 2, enantiopure, average ± S.E.M
[7] = Table S2, Days 2-6, imaged Day 7, Cmpd 1 30 mg/kg 2 x daily IV, CQ 20 mg/kg 1 x daily i.p.

SMILES: CC(C)NC(=O)[C@@H]1Cc2c([nH]c3ccccc23)[C@@H](c2ccc(Cl)cc2Cl)N1 [Compound 10]
EC50 [1]: ~10 µM

SMILES: O=C(O)[C@@H]1Cc2c([nH]c3cc(C(F)(F)F)ccc23)[C@@H](c2ccc(Cl)cc2Cl)N1 (racemic) [(±)-17c]
EC50 ([2]; Table 1, racemic samples): 1.25 to 2.5 µM

SMILES: O=C(O)[C@@H]1Cc2c([nH]c3cccc(C(F)(F)F)c23)[C@@H](c2ccc(Cl)cc2Cl)N1 (racemic) [(±)-17a]
EC50 ([2]; Table 1, racemic samples): > 10 µM

SMILES: O=C(O)[C@@H]1Cc2c([nH]c3cccc(Cl)c23)[C@@H](c2ccc(Cl)cc2Cl)N1 (racemic) [(±)-19a]
EC50 ([2]; Table 1, racemic samples): > 10 µM

SMILES: O=C(O)[C@@H]1Cc2c([nH]c3ccccc23)[C@@H](c2ccc(Cl)cc2)N1 [Compound 4]
EC50 [1]: 1.17 µM

SMILES: Cc1ccc2c3c([nH]c2c1)[C@@H](c1ccc(Cl)cc1Cl)N[C@H](C(=O)O)C3 (racemic) [(±)-16c]
EC50 ([2]; Table 1, racemic samples): > 10 µM

SMILES: O=C(O)[C@@H]1Cc2c([nH]c3ccccc23)[C@@H](c2ccccc2Cl)N1 [Compound 3]
EC50 [1]: 3.28 µM

SMILES: O=C(O)[C@@H]1Cc2c([nH]c3ccccc23)[C@@H](c2ccccc2)N1 [Compound 5]
EC50 [1]: > 10 µM

SMILES: O=c1ccc2ccccc2o1 [coumarin]
% drug remaining ([3]; 0 min): 100% | % drug remaining ([3]; 45 min): 27% | % drug remaining ([3]; 90 min): 5%

SMILES: Cc1ccc2[nH]c3c(c2c1)C[C@@H](C(=O)O)N[C@@H]3c1ccc(Cl)cc1Cl (racemic) [(±)-16b]
EC50 ([2]; Table 1, racemic samples): > 10 µM

SMILES: Cc1cccc2[nH]c3c(c12)C[C@@H](C(=O)O)N[C@@H]3c1ccc(Cl)cc1Cl (racemic) [(±)-16a]
EC50 ([2]; Table 1, racemic samples): > 10 µM

SMILES: CNC(=O)[C@@H]1Cc2c([nH]c3ccccc23)[C@@H](c2ccc(Cl)cc2Cl)N1 [Compound 7]
EC50 [1]: 0.19 ± 0.03 µM

SMILES: O=C(O)[C@@H]1Cc2c([nH]c3ccc(Br)cc23)[C@@H](c2ccc(Cl)cc2Cl)N1 (racemic) [(±)-18b]
EC50 ([2]; Table 1, racemic samples): > 10 µM

SMILES: CCCCNC(=O)[C@@H]1Cc2c([nH]c3ccccc23)[C@@H](c2ccc(Cl)cc2Cl)N1 [Compound 9]
EC50 [1]: > 10 µM

SMILES: NC(=O)[C@@H]1Cc2c([nH]c3ccccc23)[C@@H](c2ccc(Cl)cc2Cl)N1 [Compound 6]
EC50 [1]: 1.2 µM

SMILES: O=C(O)[C@@H]1Cc2c([nH]c3ccccc23)[C@@H](c2ccc(Br)cc2Cl)N1 [Compound 2]
EC50 [1]: 0.32 ± 0.06 µM

SMILES: Cc1cccc2c3c([nH]c12)[C@@H](c1ccc(Cl)cc1Cl)N[C@H](C(=O)O)C3 (racemic) [(±)-16d]
EC50 ([2]; Table 1, racemic samples): > 10 µM

SMILES: CCNC(=O)[C@@H]1Cc2c([nH]c3ccccc23)[C@@H](c2ccc(Cl)cc2Cl)N1 [Compound 8]
EC50 [1]: ~5 µM

SMILES: CCN(CC)CCCC(C)Nc1ccnc2cc(Cl)ccc12 (centres unmarked) [CQ, chloroquine]
Luminescence AVG ([5]; Table S1, oral 1 x daily Days 2-6, imaged Day 7, CQ 20 mg/kg): 4.65E+03 | Live/Dead and luminescence, individual mice ([5]; Table S1, oral 1 x daily Days 2-6, imaged Day 7, Cmpd 1 45 mg/kg, CQ 20 mg/kg): 4.72E+03 and 4.45E+03 and 4.90E+03 and 4.60E+03 and 4.61E+03 | Luminescence after background subtraction AVG [5, 7]: 2.29E+03 | Luminescence after background subtraction, individual mice [5, 7]: 0.00E+00 and 4.64E+03 and 2.76E+03 and 3.48E+03 | Luminescence after background subtraction, individual mice ([5]; Table S10, 40 mg/kg 1 x daily PO Days 2-6, imaged Day 7): 4.90E+03 and 3.85E+03 and 4.20E+03 | treated mice survived to Day 7 ([5]; oral Days 2-6): 5

More lines, main results first:

EC50 [2, 6]: > 10 µM
SMILES: O=C(O)[C@@H]1Cc2c([nH]c3cccc(Br)c23)[C@@H](c2ccc(Cl)cc2Cl)N1 [Compound 18a]

EC50 [2, 6]: 1.25 to 2.5 µM
SMILES: O=C(O)[C@@H]1Cc2c([nH]c3ccc(F)cc23)[C@@H](c2ccc(Cl)cc2Cl)N1 [Compound 20b]

EC50 [2, 6]: > 20 µM
SMILES: N#Cc1ccc2c3c([nH]c2c1)[C@@H](c1ccc(Cl)cc1Cl)N[C@H](C(=O)O)C3 [Compound 21c]

loss of growth inhibition potency (EC50) relative to 1 [2]: 17 fold | EC50 [2, 6]: 4.3 ± 0.6 µM
SMILES: O=C(O)[C@@H]1Cc2c([nH]c3cc(Br)ccc23)[C@@H](c2ccc(Cl)cc2Cl)N1 [Compound 18c]

EC50 [2, 6]: > 10 µM
SMILES: N#Cc1cccc2[nH]c3c(c12)C[C@@H](C(=O)O)N[C@@H]3c1ccc(Cl)cc1Cl [Compound 21a]

EC50 [2, 6]: > 10 µM
SMILES: N#Cc1ccc2[nH]c3c(c2c1)C[C@@H](C(=O)O)N[C@@H]3c1ccc(Cl)cc1Cl [Compound 21b]

EC50 [2, 6]: > 10 µM
SMILES: O=C(O)[C@@H]1Cc2c([nH]c3c(Br)cccc23)[C@@H](c2ccc(Cl)cc2Cl)N1 [Compound 18d]

EC50 [2, 6]: 0.964 ± 0.063 µM
SMILES: O=C(O)[C@@H]1Cc2c([nH]c3cc(F)cc(F)c23)[C@@H](c2ccc(Cl)cc2Cl)N1 [Compound 20e]
% recovery (200 μM IPP) [4]: 80%@10 μM

loss of growth inhibition potency (EC50) relative to 1 [2]: 5 fold | EC50 [2, 6]: 1.3 ± 0.1 µM
SMILES: O=C(O)[C@@H]1Cc2c([nH]c3cc(Cl)ccc23)[C@@H](c2ccc(Cl)cc2Cl)N1 [Compound 19c]
